Reference: patent US12606520B2, “Calpain-2 inhibitor compounds and methods of treatment” (WESTERN UNIVERSITY OF HEALTH SCIENCES, priority 2020, dated 2026)

Assays:
calpain-1 [1] = target: T1, calpain-1 (Mus musculus, UniProt O35350); test: Calpain-1 activity in brain after TBI in mice; format: in vivo; parameters: from tissue; host or cells: mouse brain after TBI; conditions: 1 mg/kg i.p., 24 h after TBI
T1 sequence (O35350 1-713): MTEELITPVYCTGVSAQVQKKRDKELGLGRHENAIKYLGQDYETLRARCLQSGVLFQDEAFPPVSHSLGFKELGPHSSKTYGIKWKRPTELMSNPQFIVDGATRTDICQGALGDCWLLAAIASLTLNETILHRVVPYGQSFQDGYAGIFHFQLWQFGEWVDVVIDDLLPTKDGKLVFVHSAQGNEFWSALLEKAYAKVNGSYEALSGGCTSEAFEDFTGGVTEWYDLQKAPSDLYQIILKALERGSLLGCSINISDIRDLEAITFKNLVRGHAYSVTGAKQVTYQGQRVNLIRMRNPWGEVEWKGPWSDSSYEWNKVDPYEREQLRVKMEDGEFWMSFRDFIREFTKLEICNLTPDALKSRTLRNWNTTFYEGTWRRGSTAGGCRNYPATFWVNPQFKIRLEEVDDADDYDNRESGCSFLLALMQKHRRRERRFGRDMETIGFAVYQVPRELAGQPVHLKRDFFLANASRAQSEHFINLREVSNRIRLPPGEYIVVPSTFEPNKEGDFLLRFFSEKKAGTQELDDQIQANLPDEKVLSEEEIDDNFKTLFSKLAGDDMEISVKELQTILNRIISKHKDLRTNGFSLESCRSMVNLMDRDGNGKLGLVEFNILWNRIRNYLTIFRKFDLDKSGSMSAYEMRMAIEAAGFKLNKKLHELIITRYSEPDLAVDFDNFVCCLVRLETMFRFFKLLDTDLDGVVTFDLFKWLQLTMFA
T1 sequence (O88456 1-268 partner): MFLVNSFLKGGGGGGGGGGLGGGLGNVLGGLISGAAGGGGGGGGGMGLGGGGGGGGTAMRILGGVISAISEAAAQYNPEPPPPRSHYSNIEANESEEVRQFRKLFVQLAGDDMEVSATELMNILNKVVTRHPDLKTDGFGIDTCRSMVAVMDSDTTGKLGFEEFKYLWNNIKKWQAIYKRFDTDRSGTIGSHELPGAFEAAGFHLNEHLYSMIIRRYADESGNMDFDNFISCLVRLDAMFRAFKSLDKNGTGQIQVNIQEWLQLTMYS
Procedure: (§1) We also performed the same model of TBI in male and female mice and in male and female rats. In all cases, NA184 was injected i.p. at 1 mg/kg. For the rat experiments, NA184 was injected twice at 1 h and 8 h after TBI. Animals were sacrificed 24 h after TBI and calpain activity was assayed in brain and cell death was analyzed in cortex. […] In addition, there was a highly significant correlation between calpain-2 activity and cell death in rats (FIG. 23). R^2 was 0.61 and p<0.005.

calpain-2 = target: T2, calpain-2 (Rattus norvegicus, UniProt Q07009); test: Calpain-2 activity in brain after TBI in rats; format: in vivo; conditions: 1 mg/kg i.p. at 1 h and 8 h after TBI, 24 h after TBI
T2 construct: from tissue; host or cells: rat brain after TBI
T2 sequence (Q07009 1-700): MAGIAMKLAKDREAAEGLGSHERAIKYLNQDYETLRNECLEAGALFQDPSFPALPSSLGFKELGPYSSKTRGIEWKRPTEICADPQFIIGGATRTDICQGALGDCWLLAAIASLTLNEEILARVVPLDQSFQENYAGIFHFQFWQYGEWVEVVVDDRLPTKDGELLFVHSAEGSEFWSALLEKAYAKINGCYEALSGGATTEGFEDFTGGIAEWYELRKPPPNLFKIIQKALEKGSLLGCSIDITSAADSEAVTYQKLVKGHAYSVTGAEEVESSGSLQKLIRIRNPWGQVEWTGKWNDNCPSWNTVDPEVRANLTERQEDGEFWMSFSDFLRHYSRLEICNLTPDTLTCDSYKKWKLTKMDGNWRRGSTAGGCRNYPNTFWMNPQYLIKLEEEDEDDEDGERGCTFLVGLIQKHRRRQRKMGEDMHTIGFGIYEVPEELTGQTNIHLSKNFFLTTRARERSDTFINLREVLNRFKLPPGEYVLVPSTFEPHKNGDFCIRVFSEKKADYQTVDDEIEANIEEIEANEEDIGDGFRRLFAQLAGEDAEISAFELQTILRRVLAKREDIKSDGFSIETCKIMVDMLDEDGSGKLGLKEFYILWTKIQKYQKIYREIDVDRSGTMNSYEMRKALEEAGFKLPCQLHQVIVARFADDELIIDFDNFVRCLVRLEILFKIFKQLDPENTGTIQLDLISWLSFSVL
T2 sequence (Q64537 1-270 partner): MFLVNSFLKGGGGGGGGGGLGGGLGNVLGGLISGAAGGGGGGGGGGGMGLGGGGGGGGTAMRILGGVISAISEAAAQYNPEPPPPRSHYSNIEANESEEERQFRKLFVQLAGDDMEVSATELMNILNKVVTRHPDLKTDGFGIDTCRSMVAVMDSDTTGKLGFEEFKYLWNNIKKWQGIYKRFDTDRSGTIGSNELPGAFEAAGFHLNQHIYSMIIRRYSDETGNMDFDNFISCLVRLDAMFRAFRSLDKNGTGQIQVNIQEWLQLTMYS
Procedure: as §1

calpain-1 [2] = target: T1, calpain-1; test: Calpain-1 activity in WT mouse cerebellar homogenate (20 μM Ca2+), Suc-Leu-Tyr-AMC cleavage; format: biochemical; parameters: from tissue; host or cells: wild-type mouse cerebellar (P2) homogenate; conditions: 20 μM calcium, read-out: IC50, 20 μM Ca^2+ (Calpain-1)
Procedure: Cerebellar homogenates from wild-type (WT) or calpain-1 Knock-out (KO) mice were incubated with 20 μM calcium to activate calpain-1 or with 2 mM calcium to activate calpain-2, respectively, and increasing concentrations of NA112 (12). Calpain activity was measured by the cleavage of Succinyl-Leu-Tyr-7-amino-4-methylcoumarin (Suc-Leu-Tyr-AMC), resulting in increased fluorescence. Activity is normalized to the value measured in the presence of vehicle (DMSO).
WT or calpain-1 KO mouse cerebellar P2 homogenate (crude synaptosomal fraction) were used for measuring inhibitory activity of compounds against the mouse endogenous calpain-1/-2. Each reaction contains 100 ul of WT or calpain-1 KO mouse cerebellar P2 homogenate+0, 20 or 2000 uM Ca^2++0-10,000 nM NA184.
Calpain-1 activity=calpain activity under 20 uM Ca^2+ in WT mice

Row | Compound | Calpain-1 inhibition in brain, male and female mice (calpain-1 [1]) | Calpain-2 inhibition in brain, male and female rats (calpain-2) | IC50 (calpain-1 [2]) [nM]
1 | CCC(NC(=O)[C@H](CC(C)C)NC(=O)NCc1ccccc1)C(=O)C(=O)NCc1cccc(Cl)c1OC (stereo partly drawn) [NA184, (2S)-2-(3-benzylureido)-N-(1-((3-chloro-2-methoxybenzyl)amino)-1,2-dioxopentan-3-yl)-4-methylpentanamide] | not calpain-1 | significantly inhibited calpain-2 | 
2 | CCC(NC(=O)[C@H](CC(C)C)NC(=O)NCc1ccccc1)C(=O)C(=O)NCc1cc(OC)cc(OC)c1 (mixture of isomers) [NA112, (2S)-2-(3-benzylureido)-N-(1-((3,5-dimethoxybenzyl)amino)-1,2-dioxopentan-3-yl)-4-methylpentanamide] |  |  | 1380
